Patent publication US20250122155A1, “NOVEL INDOLE DERIVATIVE, PHARMACEUTICAL COMPOSITION COMPRISING SAME, AND USE THEREOF” (MITOIMMUNE THERAPEUTICS INC., priority 2021, published 2025)
Like-named read-outs stand apart in the source and are kept apart here.

Key:
[1] = Plasma and brain drug concentration after oral administration (HPLC-MS/MS); type: in vivo
Protocol: […] parameters can be represented as maximum concentration in plasma (Cmax), time taken until maximum concentration in plasma (Tmax), area under the plasma concentration-time curve (AUClast and AUCinf), and half-life (t1/2), and the like.
The compound of Example 2 was orally administered to ICR mice at a dose of 10 mg/kg, and drug concentration in mouse plasma was measured using HPLC-MS/MS spectroscopy at 0.5, 1, 2, 4, 8 and 24 hours. The mouse brains were removed at 2 or 24 hours, and drug concentration in the brain was measured using HPLC-MS/MS spectroscopy. The area under the plasma concentration v. time curve (AUCinf) was measured to be […], and at 2 hours after administration drug concentration in plasma was 398 ng/mL and brain drug concentration was measured at 683 ng/mL. […] Further, at 24 hours after administration, for Example 2, drug concentration in plasma was measured to be 5.6 ng/mL and drug concentration in the brain was measured at 11.4 ng/mL. With the brain-plasma drug concentration ratio at 2.04, drug exposure in the brain was still high.
The Comparative Example compound was orally administered to ICR mice at a dose of 10 mg/kg, and drug concentration in mouse plasma was measured using HPLC-MS/MS spectroscopy at 0.5, 1, 2, 4, 8 and 24 hours. The mouse brains were removed at 2 or 24 hours, and drug concentration in the brain was measured using HPLC-MS/MS spectroscopy.

H9C2 cells = test: Protective effect on heart cells against t-BHP (LDH release); type: cell-based; conditions: H9C2, t-BHP 400 μM, 2 hours, read-out: EC50 (μM), Cell Protection Effect against t-BHP in Heart Cells
Protocol: In order to identify the protective effect with regard to heart cells, H9C2 cells were divided into 96-well plates by 1.5×10^4, and cultured for 24 hours. The respective wells were treated with compounds of the examples 3× serial diluted to final concentrations of 30, 10, 3, 1, 0.3, 0.1, 0.03 and 0.01 μM, then incubated for 15 to 20 minutes. After treating with t-BHP with a final concentration of 400 μM, incubation was performed for 2 hours. To confirm the protective effect of each compound, a Cytotoxicity LDH assay kit [Dojindo; CK12] was used to measure the degree of extracellular secretion of LDH. After 2-hour treatment of the cells with t-BHP was completed, 100 μL each of the supernatant in which the cells were placed was collected and moved to a new 96-well plate. 100 μL/well of the assay buffer included in the kit (same amount as the sample) was added, followed by wrapping with foil and reacting for 30 minutes at room temperature. Observing the change of color in the sample, 50 μL/well of stop solution was added, then an iD3 spectrometer was used to measure absorbance at 490 nm and calculate the EC50 values. The EC50 of the compounds of the examples is preferably no more than 1.0 μM, and more preferably no more than 0.3 μM.

[2] = ICR mouse, oral 10 mg/kg, 2 hr, 10 mg/kg
[3] = ICR mouse, oral 10 mg/kg, 24 hr, 10 mg/kg

| SMILES | EC50 (H9C2 cells) | further results |
| --- | --- | --- |
| OCc1cc(NC2CCCC2)c2[nH]c(-c3ccccc3)cc2c1 [Comparative Example, reference compound] |  | drug concentration in brain [1, 2]: 95 ng/mL; drug concentration in plasma [1, 2]: 1122 ng/mL; drug concentration in brain [1, 3]: no drug concentration was measured; drug concentration in plasma [1, 3]: no drug concentration was measured; AUC(0-inf) ([1]; ICR mouse, oral 10 mg/kg, plasma, read-out: area under the plasma concentration v. time curve (AUCinf)): 5460 ng·h/mL; concentration at 2 h ([1]; ICR, mouse, brain, po, 10 mg/kg, 2 hr, read-out: drug concentration in brain): 95 ng/mL; concentration at 24 h ([1]; ICR, mouse, brain, po, 10 mg/kg, 24 hr, read-out: drug concentration in brain): 0 ng/mL; concentration at 0.5 h ([1]; ICR, mouse, plasma, po, 10 mg/kg, 0.5 hr): 1640 ng/mL; concentration at 1 h ([1]; ICR, mouse, plasma, po, 10 mg/kg, 1 hr): 2110 ng/mL; concentration at 2 h ([1]; ICR, mouse, plasma, po, 10 mg/kg, 2 hr, read-out: drug concentration in plasma): 1120 ng/mL; concentration at 4 h ([1]; ICR, mouse, plasma, po, 10 mg/kg, 4 hr): 389 ng/mL; concentration at 8 h ([1]; ICR, mouse, plasma, po, 10 mg/kg, 8 hr): 50.8 ng/mL; concentration at 24 h ([1]; ICR, mouse, plasma, po, 10 mg/kg, 24 hr, read-out: drug concentration in plasma): 0 ng/mL; AUC(0-t) ([1]; ICR, mouse, plasma, po, 10 mg/kg, plasma, read-out: area under the plasma concentration v. time curve (AUClast)): 5360 ng·h/mL; AUC(0-t) ([1]; ICR, mouse, plasma, po, 10 mg/kg, read-out: AUClast, plasma): 5360 ng·h/mL; Kp at 2 h ([1]; brain/plasma, ICR mouse, oral 10 mg/kg, 2 hr, read-out: brain-plasma drug concentration ratio (B/P ratio)): 0.08 |
| COCCOCc1cc(NCc2cccs2)c2[nH]c(-c3ccccc3)cc2c1 [Example 43, 5-(2-methoxyethoxymethyl)-2-phenyl-N-(2-thienylmethyl)-1H-indol-7-amine] | 0.3 to 1 µM |  |
| CCOC(=O)N1CCC(Nc2cc(COCCOC)cc3cc(-c4ccccc4)[nH]c23)CC1 [Example 44, Ethyl 4-[[5-(2-methoxyethoxymethyl)-2-phenyl-1H-indol-7-yl]amino]piperidine-1-carboxylate] | ≤ 0.3 µM |  |
| COCCNc1cc(COCCOC)cc2cc(-c3ccccc3)[nH]c12 [Example 46, 5-(2-methoxyethoxymethyl)-N-(2-methoxyethyl)-2-phenyl-1H-indol-7-amine] | ≤ 0.3 µM |  |
| COCCCNc1cc(COCCOC)cc2cc(-c3ccccc3)[nH]c12 [Example 47, 5-(2-methoxyethoxymethyl)-N-(3-methoxypropyl)-2-phenyl-1H-indol-7-amine] | ≤ 0.3 µM |  |
| COCCOCc1cc(NC2CCOCC2)c2[nH]c(-c3cccc(F)c3)cc2c1 [Example 48, 2-(3-fluorophenyl)-5-(2-methoxyethoxymethyl)-N-tetrahydropyran-4-yl-1H-indol-7-amine] | ≤ 0.3 µM |  |
| COCCOCc1cc(NC2CCCC2)c2[nH]cc(C)c2c1 [Example 49, N-cyclopentyl-5-(2-methoxyethoxymethyl)-3-methyl-1H-indol-7-amine] | 0.3 to 1 µM |  |
| COCCOCc1cc(NC2CCCC2)c2[nH]cc(-c3ccccc3)c2c1 [Example 51, N-cyclopentyl-5-(2-methoxyethoxymethyl)-3-phenyl-1H-indol-7-amine] | ≤ 0.3 µM |  |
| COCCOCc1cc(NC2CCOCC2)c2[nH]cc(-c3ccccc3)c2c1 [Example 52, 5-(2-methoxyethoxymethyl)-3-phenyl-N-tetrahydropyran-4-yl-1H-indol-7-amine] | ≤ 0.3 µM |  |
| COCCOCc1cc(NC2CCOCC2)c2[nH]c(-c3ccc(Br)cc3)cc2c1 [Example 55, 2-(4-bromophenyl)-5-((2-methoxyethoxy)methyl)-N-(tetrahydro-2H-pyran-4-yl)-1H-indol-7-amine] | ≤ 0.3 µM |  |
| COCCOCc1cc(NC2CCCC2)c2[nH]c(-c3ccc(P(C)(C)=O)cc3)cc2c1 [Example 56, (4-(7-(cyclopentylamino)-5-((2-methoxyethoxy)methyl)-1H-indol-2-yl)phenyl)dimethylphosphine oxide] | ≤ 0.3 µM |  |
| COCCOCc1cc(NC2CCOCC2)c2[nH]c(-c3ccc(C#CC(C)(C)O)cc3)cc2c1 [Example 59, 4-(4-(5-((2-methoxyethoxy)methyl)-7-((tetrahydro-2H-pyran-4-yl)amino)-1H-indol-2-yl)phenyl)-2-methylbut3-yn-2-ol] | 0.3 to 1 µM |  |
| COCCCOCc1cc(NC2CCCC2)c2[nH]c(-c3ccccc3)cc2c1 [Example 61, N-cyclopentyl-5-((3-methoxypropoxy)methyl)-2-phenyl-1H-indol-7-amine] | ≤ 0.3 µM |  |
| COCCCOCc1cc(NC2COC2)c2[nH]c(-c3ccccc3)cc2c1 [Example 62, 5-((3-methoxypropoxy)methyl)-N-(oxetan-3-yl)-2-phenyl-1H-indol-7-amine] | ≤ 0.3 µM |  |
| COCCOCCCc1cc(NC2CCOCC2)c2[nH]c(-c3ccccc3)cc2c1 [Example 65, 5-(3-(2-methoxyethoxy)propyl)-2-phenyl-N-(tetrahydro-2H-pyran-4-yl)-1H-indol-7-amine] | ≤ 0.3 µM |  |
| COCCOCCc1cc(NC2CCOCC2)c2[nH]c(-c3ccccc3)cc2c1 [Example 67, 5-(2-(2-methoxyethoxy)ethyl)-2-phenyl-N-(tetrahydro-2H-pyran-4-yl)-1H-indole-7-amine] | ≤ 0.3 µM |  |

Further lines, with some results ahead:

| EC50 (H9C2 cells) | SMILES | further results |
| --- | --- | --- |
| 0.3 to 1 µM | COCCOCc1cc(NC2CCOCC2)c2c(c1)cc(-c1ccccc1)n2C [Example 53, 5-((2-methoxyethoxy)methyl)-1-methyl-2-phenyl-N-(tetrahydro-2H-pyran-4-yl)-1H-indol-7-amine] |  |
| ≤ 0.3 µM | COCCOCc1cc(NC2CCCC2)c2[nH]c(-c3ccc(Br)cc3)cc2c1 [Example 54, 2-(4-bromophenyl)-N-cyclopentyl-5-((2-methoxyethoxy)methyl)-1H-indol-7-amine] |  |
| > 1 µM | COCCOCc1cc(NC2CCOCC2)c2[nH]c(-c3ccc(P(C)(C)=O)cc3)cc2c1 [Example 57] |  |
| 0.3 to 1 µM | COCCOCc1cc(NC2CCCC2)c2[nH]c(-c3ccc(C#CC(C)(C)O)cc3)cc2c1 [Example 58, 4-(4-(7-(cyclopentylamino)-5-((2-methoxyethoxy)methyl)-1H-indol-2-yl)phenyl)-2-methylbut-3-yn-2-ol] |  |
| ≤ 0.3 µM | COCCOCc1cc(NC2CCOCC2)c2[nH]c(-c3ccc(C)cc3)cc2c1 [Example 60, 5-((2-methoxyethoxy)methyl)-N-(tetrahydro-2H-pyran-4-yl)-2-(p-tolyl)-1H-indol-7-amine] |  |
| 0.3 to 1 µM | COCCCOCc1cc(NC2CCOCC2)c2[nH]c(-c3ccccc3)cc2c1 [Example 63, 5-((3-methoxypropoxy)methyl)-2-phenyl-N-(tetrahydro-2H-pyran-4-yl)-1H-indol-7-amine] |  |
| ≤ 0.3 µM | COCCOCCc1cc(NC2CCCC2)c2[nH]c(-c3ccccc3)cc2c1 [Example 66, N-cyclopentyl-5-(2-(2-methoxyethoxy)ethyl)-2-phenyl-1H-indol-7-amine] |  |
| > 1 µM | COCCOCc1cc(N2CCCCC2)c2[nH]c(-c3ccccc3)cc2c1 [Example 68, 5-((2-methoxyethoxy)methyl)-2-phenyl-7-(piperidin-1-yl)-1H-indole] |  |
